Laboratory results reported in patent US20040023972A1, “Use of substituted imidazo[1,2-a]-pyridin-, -pyrimidin-and-pyrazin-3-yl-amine derivatives in the preparation of medicaments for inhibiting NOS” (Gruenenthal GmbH, priority 2000, published 2004).

Each molecule was assayed against T1, NO synthase (Rattus norvegicus, UniProt P29476) (assay: HTS-NOS assay (NOS assay): conversion of radioactive arginine, cation-exchanger filter plate). Conditions: 10 μM.
T1 construct: the supernatant was then removed by decantation and frozen in portions at −80° C; from tissue; host or cells: rat cerebellum, 20,000 g supernatant of homogenate
Format: biochemical
Outline: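 Percent inhibition was derived by comparing remaining radioactive arginine with compound-free controls. Arginine retained on phosphate cation-exchanger filters was counted after citrulline washout, following a 5-60 min room-temperature (25 °C) reaction of labelled arginine, NADPH-containing medium and rat cerebellar homogenate supernatant.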

SMILES | HTS-NOS assay: % inhibition (10 μM)
[C-]#[N+]CCCCCCNc1c(-c2ccccc2C)nc2cc(C)ccn12 [Example 97, Methylidyne-[6-(7-methyl-2-o-tolyl-imidazo[1,2-a]pyridin-3-ylamino)-hexyl]-ammonium] | 62%
Cc1ccn2c(NC(C)(C)CC(C)(C)C)c(-c3ccc(CO)o3)nc2c1 [Example 102, {5-[7-Methyl-3-(1,1,33-tetramethyl-butylamino)-imidazo[1,2-a]pyridin-2-yl]-furan-2-yl}-methanol] | 59%
[C-]#[N+]CCCCCCNc1c(-c2ccc(-c3ccccc3Cl)o2)nc2cccc(C)n12 [Example 103, (6-{2-[5-(2-Chlorophenyl)-furan-2-yl]-5-methyl-imidazo[1,2-a]pyridin-3-ylamino)-hexyl)-methylidyne-ammonium] | 50%
C#[N+]CCCCCCNc1c(-c2ccccc2C)nc2cc(C)cc(C)n12 [Example 106, [6-(5,7-Dimethyl-2-o-tolyl-imidazo[1,2-a]-pyridin-3-ylamino)-hexyl]-methylidyne-ammonium] | 60%
[C-]#[N+]CCCCCCNc1c(-c2ccccn2)nc2cc(C)ccn12 [Example 107, Methylidyne-[6-(7-methyl-2-pyridin-2-yl-imidazo[1,2-a]pyridin-3-ylamino)-hexyl]-ammonium] | 50%
C#[N+]CCCCCCNc1c(-c2ccc(OC)c(OC)c2)nc2cc(C)ccn12 [Example 109, {6-[2-(3,4-Dimethoxy-phenyl)-7-methyl-imidazo[1,2-a]pyridin-3-ylamino]-hexyl}-methylidyne-ammonium] | 51%
Cc1cc(C)n2c(NC3CCCCC3)c(-c3ccccn3)nc2c1 [Example 114, Cyclohexyl-(5,7-dimethyt-2-pyridin-2-yl-imidazo[1,2-a]pyridin-3-yl)-amine] | 53%
[C-]#[N+]CCCCCCNc1c(-c2ccccc2F)nc2cc(C)cc(C)n12 [Example 116, {6-[2-(2-Fluoro-phenyl)-5,7-dimethyl-imidazo[1,2-a]pyridin-3-ylamino]-hexyl}-methylidyne-ammonium] | 60%
[C-]#[N+]CCCCCCNc1c(-c2cc3ccccc3c3ccccc23)nc2cc(C)ccn12 [Example 118, Methylidyne-[6-(7-methyl-2-phenanthren-9-yl-imidazo[1,2-a]pyridin-3-ylamino)-hexyl]-ammonium] | 56%
C#[N+]CCCCCCNc1c(-c2cccc3ccccc23)nc2cc(C)ccn12 [Example 122, Methylidyne-[6-(7-methyl-2-naphthalen-1-yl-imidazo[1,2-a]pyridin-3-ylamino)-hexyl]-ammonium] | 53%

Same assay, conditions: read-out: HTS-NOS assay: % inhibition (10 μM)

inhibition at 10 µM | SMILES
55% | Cc1cccc(C)c1Nc1c(-c2cccc(Cl)c2Cl)nc2c(C)cccn12 [Example 96, [2-(2,3-Dichlorophenyl)-8-methyl-imidazo[1,2-a]pyridin-3-yl]-(2,6-dimethyl-phenyl)-amine]
62% | Cc1ccn2c(NC(C)(C)CC(C)(C)C)c(-c3ccc(-c4cccc(Cl)c4)o3)nc2c1 [Example 98, {2-[5-(3-Chlorophenyl)-furan-2-yl]-7-methyl-imidazo[1,2-a]pyridin-3-yl}-(1,1,3,3-tetramethyl-butyl)-amine]
66% | Cc1ccn2c(NC3CCCCC3)c(-c3ccc([N+](=O)[O-])o3)nc2c1 [Example 99, Cyclohexyl-[7-methyl-2-(5-nitro-furan-2-yl)-imidazo[1,2-a]pyridin-3-yl]-amine]
50% | Cc1ccn2c(NC3CCCCC3)c(-c3ccccc3Br)nc2c1 [Example 100, [2-(2-Bromophenyl)-7-methyl-imidazo[1,2-a]pyridin-3-yl]-cyclohexyl-amine]
58% | COc1ccccc1-c1nc2cc(C)ccn2c1NC(C)(C)CC(C)(C)C [Example 101, [2-(2-Methoxy-phenyl)-7-methyl-imidazo[1,2-a]pyridin-3-yl]-(1,1,3,3-tetramethyl-butyl)-amine]
63% | Cc1cc(C)n2c(NC3CCCCC3)c(-c3ccc([N+](=O)[O-])o3)nc2c1 [Example 104, Cyclohexyl-[5,7-dimethyl-2-(5-nitro-furan-2-yl)-imidazo[1,2-a]pyridin-3-yl]-amine]
65% | Cc1ccn2c(NC3CCCCC3)c(-c3cc(C)c(C)o3)nc2c1 [Example 105, Cyclohexyl-[2-(4,5-dimethyl-furan-2-yl)-7-methyl-imidazo[1,2-a]pyridin-3-yl]-amine]
73% | COc1cccc(-c2nc3cc(C)cc(C)n3c2NC(C)(C)CC(C)(C)C)c1OC [Example 108, (2-(2,3-Dimethoxy-phenyl)-5,7-dimethyl-imidazo[1,2-a]pyridin-3-yl]-(1,1,3,3-tetramethyl-butyl)-amine]
61% | Cc1ccn2c(NC(C)(C)C)c(-c3ccc(C(=O)O)s3)nc2c1 [Example 110, 5-(3-Tert-butylamino-7-methyl-imidazo[1,2-a]pyridin-2-yl)-thiophene-2-carboxylic acid]
52% | Cc1cccn2c(NC3CCCCC3)c(-c3ccncc3)nc12 [Example 111, Cyclohexyl-(8-methyl-2-pyridin-4-yl-imidazo[1,2-a]pyridin-3-yl)-amine]
52% | Cc1ccc2nc(-c3cccc(Cl)c3Cl)c(NC(C)(C)CC(C)(C)C)n2c1 [Example 112, [2-(2,3-Dichloro-phenyl)-6-methyl-imidazo[1,2-a]pyridin-3-yl]-(1,1,3,3-tetramethyl-butyl)-amine]
54% | CCCCNc1c(-c2ccc(C(=O)O)s2)nc2cnccn12 [Example 113, 5-(3-Butylamino-imidazo[1,2-a]pyrazin-2-yl)-thiophene-2-carboxylic acid]
59% | Cc1cccn2c(NC(C)(C)CC(C)(C)C)c(-c3cc4ccccc4o3)nc12 [Example 115, (2-Benzofuran-2-yl-8-methyl-imidazo[1,2-a]pyridin-3-yl)-(1,1,3,3-tetramethyl-butyl)-amine]
52% | COc1cccc(-c2nc3c(C)cccn3c2NC(C)(C)CC(C)(C)C)c1OC [Example 117, [2-(2,3-Dimethoxy-phenyl)-8-methyl-imidazo[1,2-a]pyridin-3-yl]-(1,1,3,3-tetramethyl-butyl)-amine]
56% | CC(C)(C)Nc1c(-c2ccc(C(=O)O)s2)nc2cnccn12 [Example 119, 5-(3-Tert-butylamino-imidazo[1,2-a]pyrazin-2-yl)-thiophene-2-carboxylic acid]
56% | Cc1cccn2c(NC(C)(C)C)c(-c3ccccn3)nc12 [Example 120, Tert-butyl-(8-methyl-2-pyridin-2-yl-imidazo[1,2-a]pyridin-3-yl)-amine]
53% | Cc1cccn2c(NC3CCCCC3)c(-c3ccco3)nc12 [Example 121, Cyclohexyl-(2-furan-2-yl-8-methyl-imidazo[1,2-a]pyridin-3-yl)-amine]
53% | Cc1cccn2c(NC(C)(C)C)c(C3CCCCC3)nc12 [Example 123, Tert-butyl-(2-cyclohexyl-8-methyl-imidazo[1,2-a]pyridin-3-yl)-amine]
68% | Cc1ccc2nc(-c3ccncc3)c(NC(C)(C)CC(C)(C)C)n2c1 [Example 124, (6-Methyl-2-pyridin-4-yl-imidazo[1,2-a]-pyridin-3-yl)-(1,1,3,3-tetramethyl-butyl)-amine]
